Laboratory results reported in US20080090734A1, “DRUG SCREENING AND TARGET IDENTIFICATION USING SPR IMAGING OF TARGET PROTEIN ARRAYS” (The Trustees of California State University, priority 2006, published 2008).

What was measured:
Test in all cases: Antibiotic susceptibility profile
Type in all cases: cell-based, Acinetobacter baumannii
Set-up in all cases: key: Resistance; Intermediate; Susceptible
[1] = tested on: A. baumannii clinical isolate LAC 07
Description: (§1) We obtained over thirty clinical isolates of A. baumannii from nosocomial infections in New York City and Los Angeles. […] Only antibiotics with breakpoints for A. baumannii were used. […] Isolates LA 01 to 20 were acquired from Los Angels County while NY-A to NY-H were obtained from New York City.
(§2) Antibiotic susceptibility profiles of clinical isolates of A. baumannii and reference strains. R, I, and S denote Resistance, Intermediate and Susceptible, respectively. Genetic Profiling of Clinical Isolates of A. baumannii

[2] = tested on: A. baumannii clinical isolate LAC 08
Description: as §1, §2

[3] = tested on: A. baumannii clinical isolate NY D
Description: as §1, §2

[4] = tested on: A. baumannii clinical isolate LAC 14
Description: as §1, §2

[5] = tested on: A. baumannii clinical isolate NY A
Description: as §1, §2

[6] = tested on: A. baumannii clinical isolate LAC 13
Description: as §1, §2

[7] = tested on: A. baumannii clinical isolate NY H
Description: as §1, §2

[8] = tested on: A. baumannii clinical isolate LAC 06
Description: as §1, §2

[9] = tested on: A. baumannii clinical isolate NY G
Description: as §1, §2

[10] = tested on: A. baumannii reference strain 19606; conditions: strain 19606 (ATCC)
Description: as §1, §2

[11] = tested on: A. baumannii reference strain SDF
Description: as §1, §2

[12] = tested on: A. baumannii clinical isolate LAC 12
Description: as §1, §2

[13] = tested on: A. baumannii clinical isolate NY F
Description: as §1, §2

[14] = tested on: A. baumannii reference strain 15839; conditions: strain 15839 (ATCC)
Description: as §1, §2

[15] = tested on: A. baumannii clinical isolate LAC 17
Description: as §1, §2

[16] = tested on: A. baumannii clinical isolate NY B
Description: as §1, §2

[17] = tested on: A. baumannii clinical isolate LAC 09
Description: as §1, §2

[18] = tested on: A. baumannii clinical isolate LAC 03
Description: as §1, §2

[19] = tested on: A. baumannii clinical isolate LAC 02
Description: as §1, §2

[20] = tested on: A. baumannii clinical isolate LAC 04
Description: as §1, §2

[21] = tested on: A. baumannii reference strain AYE
Description: as §1, §2

[22] = tested on: A. baumannii clinical isolate LAC 01
Description: as §1, §2

[23] = tested on: A. baumannii clinical isolate LAC 20
Description: as §1, §2

[24] = tested on: A. baumannii clinical isolate LAC 05
Description: as §1, §2

[25] = tested on: A. baumannii clinical isolate LAC 10
Description: as §1, §2

[26] = tested on: A. baumannii clinical isolate LAC 16
Description: as §1, §2

[27] = tested on: A. baumannii clinical isolate NY E
Description: as §1, §2

[28] = tested on: A. baumannii reference strain 17978; conditions: strain 17978 (ATCC)
Description: as §1, §2

[29] = tested on: A. baumannii clinical isolate LAC 19
Description: as §1, §2

[30] = tested on: A. baumannii clinical isolate LAC 15
Description: as §1, §2

[31] = tested on: A. baumannii clinical isolate LAC 18
Description: as §1, §2

[32] = tested on: A. baumannii clinical isolate NY C
Description: as §1, §2

[33] = tested on: A. baumannii clinical isolate LAC 11
Description: as §1, §2

Structure (SMILES)	Antibiotic susceptibility [1]	Antibiotic susceptibility [2]	Antibiotic susceptibility [3]	Antibiotic susceptibility [4]	Antibiotic susceptibility [5]	Antibiotic susceptibility [6]	Antibiotic susceptibility [7]	Antibiotic susceptibility [8]	Antibiotic susceptibility [9]	Antibiotic susceptibility [10]	Antibiotic susceptibility [11]	Antibiotic susceptibility [12]	Antibiotic susceptibility [13]	Antibiotic susceptibility [14]	Antibiotic susceptibility [15]	Antibiotic susceptibility [16]	Antibiotic susceptibility [17]	Antibiotic susceptibility [18]	Antibiotic susceptibility [19]	Antibiotic susceptibility [20]	also measured
CO/N=C(\C(=O)N[C@@H]1C(=O)N2C(C(=O)O)=C(COC(C)=O)CS[C@H]12)c1csc(N)n1 [CTX, Cefotaxime]	R	I	R	R	R	R	R	R	R	I	S	R	R	R	R	R	R	R	R	R	Antibiotic susceptibility [21]: R; Antibiotic susceptibility [22]: R; Antibiotic susceptibility [23]: R; Antibiotic susceptibility [24]: I; Antibiotic susceptibility [25]: R; Antibiotic susceptibility [26]: R; Antibiotic susceptibility [27]: R; Antibiotic susceptibility [28]: S; Antibiotic susceptibility [29]: R; Antibiotic susceptibility [30]: R; Antibiotic susceptibility [31]: R; Antibiotic susceptibility [32]: R; Antibiotic susceptibility [33]: R
C[C@H]1c2cccc(O)c2C(=O)C2=C(O)[C@]3(O)C(=O)C(C(N)=O)=C(O)[C@@H](N(C)C)[C@@H]3[C@@H](O)[C@@H]21 [DOX, Doxycycline]	S	S	S	R	S	R	S	S	R	S	S	R	S	R	S	R	S	S	S	S	Antibiotic susceptibility [21]: S; Antibiotic susceptibility [22]: S; Antibiotic susceptibility [23]: S; Antibiotic susceptibility [24]: S; Antibiotic susceptibility [25]: S; Antibiotic susceptibility [26]: S; Antibiotic susceptibility [27]: R; Antibiotic susceptibility [28]: S; Antibiotic susceptibility [29]: S; Antibiotic susceptibility [30]: S; Antibiotic susceptibility [31]: S; Antibiotic susceptibility [32]: S; Antibiotic susceptibility [33]: R
CO/N=C(\C(=O)N[C@@H]1C(=O)N2C(C(=O)[O-])=C(C[N+]3(C)CCCC3)CS[C@H]12)c1csc(N)n1 [FEP, Cefepime]	R	I	R	R	I	R	R	S	R	I	I	R	R	I	R	R	R	R	R	I	Antibiotic susceptibility [21]: R; Antibiotic susceptibility [22]: R; Antibiotic susceptibility [23]: R; Antibiotic susceptibility [24]: I; Antibiotic susceptibility [25]: R; Antibiotic susceptibility [26]: R; Antibiotic susceptibility [27]: R; Antibiotic susceptibility [28]: S; Antibiotic susceptibility [29]: R; Antibiotic susceptibility [30]: R; Antibiotic susceptibility [31]: R; Antibiotic susceptibility [32]: R; Antibiotic susceptibility [33]: R
